“Also recorded” adds a separate entry of the source.
Experiments:
86 kDa form of CBP86 = test: In vitro capacitation of human sperm, anti-phosphotyrosine (RC-20) 2-D immunoblot of CBP86; assay type: cell-based; details: for Capacitation-induced tyrosine phosphorylation of the 86 kDa CBP86 isoforms: human sperm capacitated in HTF plus HSA plus 100 μμM progesterone plus 100, 200 or 400 μμM of inhibitor
Experimental: Preparation of semen specimens and solubilization of sperm proteins were performed as previously described (Naaby-Hansen et al, 1997a.) For analytical two-dimensional electrophoresis the detergent/urea extracted proteins were separated by isoelectric focusing (IEF) in acrylamide tube gels prior to second dimensional gel electrophoresis (SDS-PAGE), which was performed in a Protean II xi Multi-Cell apparatus (Bio-Rad, Richmond, Calif.) or on large format (23×23 cm) gels (Investigator 2-D Electrophoresis System, ESA) which were also employed for preparative 2D gel electrophoresis. Electrotransfer to nitrocellulose membranes and subsequent visualizing of the proteins by gold staining was accomplished as previously described (Naaby-Hansen et al, 1997) while electrotransfer to PVDF membranes ([…], Pierce) was carried out as described by Henzel et al. (1993) using the transfer buffer composition of Matsudaira (1987) (10 mM 3-[cyclohexylamino]-1-propanesulfonic acid, 10% methanol, pH 11). The immobilized proteins were visualized by staining in a solution containing 0.1% Commassie R250, 40% methanol and 0.1% acetic acid for one minute, followed by destaining in a solution of 10% acetic acid and 50% methanol for 3×3 minutes.
Motile sperm were harvested by the swim up method of Bronson and Fusi (1990). A control sample was removed and snap frozen (−70 C.), while the remaining sperm were resuspended in one of the following media: Dulbecco's PBS, BWW, BWW plus 3 mM b-cyclodextran (Sigma), BWW plus b-cyclodextran and 100 μμM progesterone, human tubal fluid [HTF] (Irvine) plus HSA (30 mg/ml), HTF plus HSA plus 2, 20 or 100 μμM progesterone, HTF plus HSA plus 100 μμM progesterone plus either 100, 200 or 400 μμM of genestein or daidzein. (Akiyama et al., 1987). Capacitation was achieved by incubating the samples at 37° C. in 5% CO2 with sperm removed at various timepoints and isolated by centrifugation. […]

[1] = test system: T1, recombinant CBP86 (CR-A of CBP86 with C-terminal six-histidine tag, expressed in E. coli)
T1 sequence: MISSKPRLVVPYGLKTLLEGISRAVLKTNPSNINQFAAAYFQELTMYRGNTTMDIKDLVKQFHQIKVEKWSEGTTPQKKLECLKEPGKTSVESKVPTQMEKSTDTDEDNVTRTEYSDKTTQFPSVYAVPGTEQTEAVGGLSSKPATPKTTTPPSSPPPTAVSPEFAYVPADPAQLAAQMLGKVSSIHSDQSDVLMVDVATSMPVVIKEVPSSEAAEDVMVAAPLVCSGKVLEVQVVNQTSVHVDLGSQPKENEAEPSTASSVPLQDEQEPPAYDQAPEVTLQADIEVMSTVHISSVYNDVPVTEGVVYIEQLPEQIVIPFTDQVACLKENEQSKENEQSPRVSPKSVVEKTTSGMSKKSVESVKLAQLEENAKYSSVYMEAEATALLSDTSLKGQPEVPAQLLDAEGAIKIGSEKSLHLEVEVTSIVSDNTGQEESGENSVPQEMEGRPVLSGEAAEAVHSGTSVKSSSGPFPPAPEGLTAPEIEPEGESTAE

Compound	Capacitation-induced tyrosine phosphorylation of the 86 kDa CBP86 isoforms (86 kDa form of CBP86)	further results
O=c1c(-c2ccc(O)cc2)coc2cc(O)cc(O)c12 [genistein]	inhibited in a concentration dependent manner	–
O=c1c(-c2ccc(O)cc2)coc2cc(O)ccc12 [daidzein]	had an inhibitory effect on phosphorylation of CBP86	–
CC(=O)[C@H]1CC[C@H]2[C@@H]3CCC4=CC(=O)CC[C@]4(C)[C@H]3CC[C@]12C [progesterone]	–	Tyrosine phosphorylation of the most acidic of the CBP86 isoforms (86 kDa form of CBP86; 100 microM added to HTF+ albumin capacitation media, compared with HTF plus albumin alone): further enhanced the phosphorylation; also recorded: leads to phosphorylation of tyrosine residues on the acidic CBP86 isoforms
baculovirus expressed c-Src (Upstate Biotechnology, Inc.)	–	tyrosine phosphorylation of recombinant CBP86 in an in vitro kinase assay ([32P]ATP, SDS-PAGE, autoradiography) [1]: An increase in tyrosine phosphorylation of CBP86 was noted as its concentration increased in the presence of a constant amount of c-Src
